This note sets out measurements from ChEMBL document CHEMBL1201862, “PubChem BioAssay data set” (2004).

Test systems include HOP-62; HT-29; UO-31; NCI-H23; SF-539; MDA-MB-231; OVCAR-3; RXF 393; HOP-92; NCI/ADR-RES; TK-10; COLO 205; SN12C; PC-3; SW-620; Malme-3M; MCF7; OVCAR-5; NCI-H522.
Assay in all cases: NCI anticancer screen, dose series, 48 h

SMILES strings stand for the structures.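 Cells were grown in 96-well plates and exposed to each compound for 48 hours at five concentrations; endpoints were interpolated linearly between bracketing concentrations, or set to the highest concentration if not reached. The concentration for 50% growth inhibition is given as GI50.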 Active and inactive are the calls of the source. No stated cut-off is given here; in the data, active = GI50 up to about 1.1 µM and inactive = higher.

As to `O=[N+]([O-])c1ccc2c(c1)=[N+]([O-])C1(CCCCC1)[N+]=2[O-]`, the GI50 with HOP-62 was 17.1 µM (inactive); in the assay on HT-29, 19.5 µM (inactive); in the assay with UO-31, 19.6 µM (inactive); in the assay with NCI-H23 it was 22.9 µM (inactive); in the assay on SF-539, 18.5 µM (inactive); in the assay on MDA-MB-231, 18.2 µM (inactive). Further, the GI50 is 15.6 µM (inactive) with OVCAR-3; 18.5 µM (inactive) in the assay with RXF 393; 15.3 µM (inactive) in the assay on HOP-92; 26.2 µM (inactive) with NCI/ADR-RES; 13.3 µM (inactive) in the assay with TK-10; 12.1 µM (inactive) in the assay on COLO 205. Moreover, the GI50 in the assay on SN12C was 17.5 µM (inactive); with PC-3 it was 17.5 µM (inactive); in the assay with SW-620, 15.9 µM (inactive); in the assay on Malme-3M, 15.2 µM (inactive); in the assay on MCF7, 16.1 µM (inactive); in the assay with OVCAR-5, 20.5 µM (inactive).
Take `FC1=C2C3CCC(C3)C2C1(F)F` (centres undefined): the GI50 in the assay on HOP-62, in the assay on HT-29, with UO-31, in the assay with NCI-H23, in the assay with SF-539 and in the assay with MDA-MB-231 was > 100 µM (inactive) each time. In addition, the GI50 in the assay with OVCAR-3, with RXF 393, in the assay on NCI/ADR-RES, with TK-10, with COLO 205 and in the assay with SN12C was > 100 µM (inactive) in each case. Moreover, the GI50 with PC-3, in the assay on SW-620, with Malme-3M, in the assay on NCI-H522, in the assay with MCF7 and in the assay with OVCAR-5 was > 100 µM (inactive) each time.
`CC(=O)Oc1cc2c[n+](C)c3c4cc(OC(C)=O)c(OC(C)=O)cc4ccc3c2cc1OC(C)=O`: the GI50 was 3.71 µM (inactive) in the assay on HOP-62; 2.72 µM (inactive) in the assay with HT-29; 1.36 µM (inactive) in the assay with UO-31; 4.23 µM (inactive) with NCI-H23; 2.24 µM (inactive) with OVCAR-3; 0.168 µM (active) with RXF 393. Moreover, the GI50 in the assay on HOP-92 was 4.32 µM (inactive); in the assay on NCI/ADR-RES, 2.54 µM (inactive); with TK-10, > 100 µM (inactive); in the assay with COLO 205, 6.5 µM (inactive); in the assay with SN12C, 3.43 µM (inactive); in the assay with PC-3, 4.07 µM (inactive). Besides, the GI50 in the assay on SW-620 was 3.31 µM (inactive); in the assay with Malme-3M it was 2.39 µM (inactive); with NCI-H522 it was 0.647 µM (active); in the assay on MCF7, 3.17 µM (inactive); in the assay with OVCAR-5, 17.3 µM (inactive).
As for `CN(C)c1nc(NN)c2c(-c3ccccc3)c(-c3ccccc3)oc2n1`, the GI50 is 98.4 µM (inactive) in the assay with HT-29; > 100 µM (inactive) in the assay with UO-31; > 100 µM (inactive) in the assay on NCI-H23; > 100 µM (inactive) in the assay on SF-539; > 100 µM (inactive) in the assay on MDA-MB-231; > 100 µM (inactive) with RXF 393. The GI50 with HOP-92, with NCI/ADR-RES, with TK-10, with COLO 205, in the assay on SN12C and in the assay with SW-620 was > 100 µM (inactive) each time. For the same compound, the GI50 in the assay on NCI-H522 is 68.2 µM (inactive); with MCF7, > 100 µM (inactive); with OVCAR-5, > 100 µM (inactive).
Turning to `[N-]=[N+]=NI1OC(C(F)(F)F)(C(F)(F)F)c2ccccc21`, the GI50 was 15.1 µM (inactive) with HOP-62; 17.3 µM (inactive) in the assay on HT-29; 11 µM (inactive) in the assay on UO-31; 17.8 µM (inactive) in the assay with NCI-H23; 16.5 µM (inactive) in the assay with SF-539; 15.1 µM (inactive) in the assay on MDA-MB-231. Moreover, the GI50 is 14.7 µM (inactive) in the assay on OVCAR-3; 14 µM (inactive) in the assay on RXF 393; 13.4 µM (inactive) in the assay with HOP-92; 18.6 µM (inactive) in the assay on NCI/ADR-RES; 16.5 µM (inactive) in the assay on TK-10; 13.8 µM (inactive) with COLO 205. Moreover, the GI50 in the assay on SN12C was 14.6 µM (inactive); in the assay with PC-3 it was 15.7 µM (inactive); in the assay with SW-620 it was 19.1 µM (inactive); in the assay on NCI-H522 it was 5.83 µM (inactive); in the assay on MCF7, 12.9 µM (inactive); with OVCAR-5 it was 15.1 µM (inactive).
On to `COC(CN(C=O)[C@@H](c1ccc(Cl)cc1)c1cc2ccccc2o1)OC`, for which the GI50 with HOP-62 was 22 µM (inactive); with HT-29, 17.1 µM (inactive); with UO-31 it was 16.5 µM (inactive); in the assay on NCI-H23, 18.5 µM (inactive); with SF-539, 17.9 µM (inactive); in the assay with MDA-MB-231, 18.5 µM (inactive). The GI50 with OVCAR-3 was 12.7 µM (inactive); in the assay with RXF 393 it was 14.6 µM (inactive); with HOP-92, 16.7 µM (inactive); in the assay on NCI/ADR-RES, 18.3 µM (inactive); with TK-10, 15.5 µM (inactive); in the assay with COLO 205, 17.6 µM (inactive). In addition, the GI50 is 17.2 µM (inactive) in the assay with SN12C; 17.3 µM (inactive) in the assay on PC-3; 16.6 µM (inactive) in the assay with SW-620; 0.397 µM (active) with Malme-3M; 14.5 µM (inactive) in the assay on NCI-H522; 15.5 µM (inactive) with MCF7. In addition, the GI50 in the assay on OVCAR-5 is 15.8 µM (inactive).
In the case of `CC1=CC(=O)N(c2c(C)cccc2Cl)C(C)N1` (centres undefined), the GI50 in the assay on HOP-62, in the assay on HT-29, in the assay on UO-31, in the assay on NCI-H23, in the assay with SF-539 and in the assay on OVCAR-3 was > 100 µM (inactive) each time. Also, the GI50 in the assay on RXF 393, with HOP-92, in the assay on TK-10, in the assay with COLO 205, with SN12C and in the assay on SW-620 was > 100 µM (inactive) throughout. For the same compound, the GI50 in the assay with Malme-3M, with NCI-H522 and in the assay on OVCAR-5 was > 100 µM (inactive) throughout.
In the case of `CC(C)=C/C=C1/CS(=O)(=O)C=C1C`, the GI50 in the assay on HOP-62, with HT-29, with UO-31, in the assay with NCI-H23, in the assay with SF-539 and in the assay with MDA-MB-231 was > 100 µM (inactive) in each case. The GI50 with OVCAR-3, in the assay with RXF 393, with NCI/ADR-RES, in the assay with TK-10, in the assay on COLO 205 and with SN12C was > 100 µM (inactive) throughout. Moreover, the GI50 in the assay with PC-3, in the assay on SW-620, in the assay on Malme-3M, with NCI-H522, in the assay with MCF7 and in the assay with OVCAR-5 was > 100 µM (inactive) in each case.
For `CCOP(C)(=O)C(Nc1ccc(F)cc1)c1ccc(F)cc1` (centres undefined), the GI50 with HOP-62 is > 100 µM (inactive); with HT-29, > 100 µM (inactive); in the assay on UO-31 it was 71.3 µM (inactive); with NCI-H23, > 100 µM (inactive); in the assay with SF-539 it was > 100 µM (inactive); with MDA-MB-231, > 100 µM (inactive). The GI50 with OVCAR-3, in the assay with RXF 393, in the assay on HOP-92, in the assay with NCI/ADR-RES, in the assay with TK-10 and with COLO 205 was > 100 µM (inactive) throughout. In addition, the GI50 in the assay with SN12C, in the assay with PC-3, in the assay on SW-620, with Malme-3M, in the assay with NCI-H522 and in the assay on OVCAR-5 was > 100 µM (inactive) throughout.
Regarding `O=C(/C=C1\Nc2ccccc2C(=O)N1c1ccccc1Cl)c1ccccc1`, the GI50 in the assay on HOP-62 was > 100 µM (inactive); in the assay on HT-29, 64.7 µM (inactive); in the assay with UO-31 it was > 100 µM (inactive); with NCI-H23 it was > 100 µM (inactive); in the assay with SF-539, > 100 µM (inactive); with OVCAR-3 it was 88.9 µM (inactive). The GI50 in the assay with RXF 393 was > 100 µM (inactive); in the assay on HOP-92, 17.9 µM (inactive); in the assay on TK-10, > 100 µM (inactive); in the assay with COLO 205 it was > 100 µM (inactive); in the assay with SN12C, > 100 µM (inactive); in the assay with SW-620, > 100 µM (inactive). The GI50 in the assay on Malme-3M, with NCI-H522 and in the assay with OVCAR-5 was > 100 µM (inactive) in each case.
`CCNc1nc2c(=O)n(C)c(=O)n(C)c2s1`: the GI50 in the assay on HOP-62, with HT-29, with UO-31, with NCI-H23, with SF-539 and with OVCAR-3 was > 100 µM (inactive) in each case. Also, the GI50 with RXF 393, with HOP-92, in the assay with TK-10, in the assay with COLO 205, in the assay with SN12C and in the assay on SW-620 was > 100 µM (inactive) each time. For the same compound, the GI50 in the assay on Malme-3M, with NCI-H522 and in the assay on OVCAR-5 was > 100 µM (inactive) each time.
As to `CC12CCCCC1=[N+]([O-])C(C)(C)N2O` (centres undefined), the GI50 in the assay on HOP-62, in the assay on HT-29, in the assay with UO-31, with NCI-H23, in the assay on SF-539 and in the assay with MDA-MB-231 was > 100 µM (inactive) each time. In addition, the GI50 in the assay on OVCAR-3, in the assay with RXF 393, in the assay with HOP-92, with NCI/ADR-RES, in the assay on TK-10 and with COLO 205 was > 100 µM (inactive) each time. Moreover, the GI50 with SN12C, in the assay on PC-3, in the assay on SW-620, with Malme-3M, in the assay with MCF7 and in the assay with OVCAR-5 was > 100 µM (inactive) in each case.
